{"source": "patent US7176224B2", "about": "“Oxazolyl-aryloxyacetic acid derivatives and their use as PPAR agonists” (Eli Lilly and Company, priority 2000, dated 2007)", "key": {"Hu apoAI transgenic mice": {"system": "Hu apoAI transgenic mice", "assay": "Evaluation of triglyceride and cholesterol levels in hu apoAI transgenic mice", "format": "in vivo", "conditions": "30 mg/kg oral gavage daily for 7 days; serum HDLc FPLC area under the curve, over mice receiving vehicle", "description": "Five to six week old male mice, transgenic for human apoAI [C57B1/6-tgn(apoa1) 1rub, Jackson Laboratory, Bar Harbor, Me.] were housed five per cage (10″×20″8″ with aspen chip bedding) with food (Purina 5001) and water available at all times. After an acclimation period of 2 weeks, animals were individually identified by ear notches, weighed, and assigned to groups based on body weight. Beginning the following morning, mice were dosed daily by oral gavage for 7 days using a 20 gauge, 1½″ curved disposable feeding needle (Popper & Sons). Treatments were test compounds (30 mg/kg), a positive control (fenofibrate, 100 mg/kg) or vehicle [1% carboxymethylcellulose (w/v)/0.25% Tween80 (w/v); 0.2 ml/mouse]. Prior to termination on day 7, mice were weighed and dosed. Three hours after dosing, animals were anesthetized by inhalation of isoflurane (2–4%; Abbott Laboratories, Chicago, Ill.) and blood obtained via cardiac puncture (0.7–1.0 ml). Whole blood was transferred to serum separator tubes (Vacutainer SST), chilled on ice, and permitted to clot. Serum was obtained after centrifugation at 4° C. and frozen until analysis for triglycerides, total cholesterol, compound levels, and serum lipoprotein profile by fast protein liquid chromatography (FPLC) coupled to an inline detection system. After sacrifice by cervical dislocation, the liver, heart and epididymal fat pads were excised and weighed.\nThe animals dosed with vehicle had average triglycerides values of 60–80 mg/dl, which were reduced by the positive control fenofibrate (33–58 mg/dl with a mean reduction of 37%). The animals dosed with vehicle had average total serum cholesterol values of 140–180 mg/dl, which were increased by fenofibrate (190–280 mg/dl, with a mean elevation of 41%). […] increased the amount of HDLc (68–96 v-sec with a mean percent increase of 48%).\nGlucose was measured colorimetrically using commercially purchased reagents (Sigma #315-500). According to the manufacturers, the procedures were modified from published work (McGowan, M. W., Artiss, J. D., Strandbergh, D. R. & Zak, B. Clin Chem, 20:470–5 (1974) and Keston, A. Specific colorimetric enzymatic analytical reagents for glucose. Abstract of papers 129th Meeting ACS, 31C (1956).); and depend on the release of a mole of hydrogen peroxide for each mole of analyte, coupled with a color reaction first described by Trinder (Trinder, P. Determination of glucose in blood using glucose oxidase with an alternative oxygen acceptor. Ann Clin Biochem, 6:24 (1969)). The absorbance of the dye produced is linearly related to the analyte in the sample. The assays were further modified in our laboratory for use in a 96 well format. Standards (Sigma #339-11, Sigma #16-11, and Sigma #CC0534 for glucose, triglycerides and total cholesterol, respectively), quality control plasma (Sigma # A2034), and samples (2 or 5 μl/well) were measured in duplicate using 200 μl of reagent. An additional aliquot of sample, pipetted to a third well and diluted in 200 μl water, provided a blank for each specimen. Plates were incubated at room temperature (18, 15, and 10 minutes for glucose, triglycerides and total cholesterol, respectively) on a plate shaker (DPC Micormix 5) and absorbance read at 500 nm (glucose and total cholesterol) or 540 nm (triglycerides) on a plate reader (Wallac Victor 1420). Sample absorbances were compared to a standard curve (100–800, 10–500, and 100–400 mg/dl for glucose, triglycerides and total cholesterol, respectively). Values for the quality control sample were always within the expected range and the coefficient of variation for samples was below 10%. All samples from an experiment were assayed at the same time to minimize inter-assay variability.\nSerum lipoproteins were separated and cholesterol quantitated with an in-line detection system. Sample was applied to a Superose® 6 HR 10/30 size exclusion column (Amersham Pharmacia Biotech) and eluted with phosphate buffered saline-EDTA at 0.5 ml/min. […]"}, "db/db mice": {"system": "db/db mice", "assay": "Evaluation of glucose levels in db/db mice", "format": "in vivo", "conditions": "30 mg/kg oral gavage daily for 7 days; 100% = glucose not differing from lean values", "description": "Five week old male diabetic (db/db) mice [C57BlKs/j-m +/+ Lepr(db), Jackson Laboratory, Bar Harbor, Me.] or lean littermates (DB/?) were housed 6 per cage (10″20″8″ with aspen chip bedding) with food (Purina 5015) and water available at all times. After an acclimation period of 2 weeks, animals were individually identified by ear notches, weighed, and bled via the tail vein for determination of initial glucose levels. Blood was collected (100 μl) from unfasted animals by wrapping each mouse in a towel, cutting the tip of the tail with a scalpel, and milking blood from the tail into a heparinized capillary tube (Fisher) balanced on the edge of the bench. Sample was discharged into a heparinized microtainer with gel separator (VWR) and retained on ice. Plasma was obtained after centrifugation at 4° C. and glucose measured immediately. Remaining plasma was frozen until the completion of the experiment, when glucose and triglycerides were assayed in all samples. […]\nGlucose was measured colorimetrically using commercially purchased reagents (Sigma #315-500). […] The absorbance of the dye produced is linearly related to the analyte in the sample. […] Standards (Sigma #339-11, Sigma #16-11, and Sigma #CC0534 for glucose, triglycerides and total cholesterol, respectively), quality control plasma (Sigma # A2034), and samples (2 or 5 μl/well) were measured in duplicate using 200 μl of reagent. […]"}}}
{"smiles": "Cc1oc(-c2cccc(-c3cccs3)c2)nc1CCOc1ccc(CC(C)(Oc2ccccc2)C(=O)O)cc1", "note": "(centres unmarked) [Example 5, 2-Methyl-3-(4-{2-[5-methyl-2-(3-thiophen-2-ylphenyl)oxazol-4-yl]ethoxy}phenyl)-2-phenoxypropionic acid]", "values": [{"measurement": "% HDLc Increase", "setting": "Hu apoAI transgenic mice", "value": 94.5, "unit": "%"}, {"measurement": "Glucose Normalisation", "setting": "db/db mice", "value": 71, "unit": "%"}]}
